The target of test [1] is Acetylcholinesterase (Electrophorus electricus) (UniProt O42275). The test is described as follows: Inhibition of electric eel AChE preincubated for 15 mins at 10 uM followed by addition of acetylthiocholine iodide as substrate measured after 30 mins by Ellman's microplate assay. In general terms: In Ellman's method for cholinesterases, released thiocholine reacts with DTNB.

Test [2] addresses T1, Acetylcholinesterase (Electrophorus electricus, UniProt O42275). Kind of test: Mixed type inhibition of electric eel AChE preincubated for 15 mins followed by addition of acetylthiocholine iodide as substrate measured after 30 mins by Lineweaver-Burk double reciprocal plot analysis.
Test [3] addresses T1, Acetylcholinesterase.
Description: Inhibition of electric eel AChE preincubated for 15 mins followed by addition of acetylthiocholine iodide as substrate measured after 30 mins by Ellman's microplate assay
Test [4] deals with Cholinesterase (Equus caballus) (UniProt P81908). Kind of test: Inhibition of equine serum BChE preincubated for 15 mins at 10 uM followed by addition of S-butyrylthiocholine iodide as substrate measured after 30 mins by Ellman's microplate assay.
Chain of Cholinesterase (Equus caballus) (P81908 whole entry): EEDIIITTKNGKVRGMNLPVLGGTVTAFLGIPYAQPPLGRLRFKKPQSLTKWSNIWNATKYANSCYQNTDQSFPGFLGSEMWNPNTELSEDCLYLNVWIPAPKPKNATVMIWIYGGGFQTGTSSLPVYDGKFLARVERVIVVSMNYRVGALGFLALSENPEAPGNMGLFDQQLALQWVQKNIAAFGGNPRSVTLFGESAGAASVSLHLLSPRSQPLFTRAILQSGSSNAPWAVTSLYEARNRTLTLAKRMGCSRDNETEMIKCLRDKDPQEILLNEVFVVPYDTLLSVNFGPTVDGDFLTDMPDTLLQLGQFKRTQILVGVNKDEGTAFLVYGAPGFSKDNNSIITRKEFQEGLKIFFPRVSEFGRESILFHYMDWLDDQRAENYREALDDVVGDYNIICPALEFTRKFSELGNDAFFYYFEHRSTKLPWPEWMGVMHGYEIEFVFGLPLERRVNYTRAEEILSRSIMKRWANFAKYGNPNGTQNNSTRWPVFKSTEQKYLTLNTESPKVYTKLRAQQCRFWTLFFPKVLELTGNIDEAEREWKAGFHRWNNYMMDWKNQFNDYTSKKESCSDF
The target in test [5] is T2, Cholinesterase (Equus caballus, UniProt P81908).
T2 sequence (P81908 whole entry): as above
Description: Inhibition of equine serum BChE preincubated for 15 mins followed by addition of S-butyrylthiocholine iodide as substrate measured after 30 mins by Ellman's microplate assay
Test [6] deals with T2, Cholinesterase. Kind of test: Mixed type inhibition of equine serum BChE preincubated for 15 mins followed by addition of S-butyrylthiocholine iodide as substrate measured after 30 mins by Lineweaver-Burk double reciprocal plot analysis.

Activity calls are given as the source filed them. The calls are words filed in the database; no cut-off is given here.

T1 sequence (O42275 whole entry): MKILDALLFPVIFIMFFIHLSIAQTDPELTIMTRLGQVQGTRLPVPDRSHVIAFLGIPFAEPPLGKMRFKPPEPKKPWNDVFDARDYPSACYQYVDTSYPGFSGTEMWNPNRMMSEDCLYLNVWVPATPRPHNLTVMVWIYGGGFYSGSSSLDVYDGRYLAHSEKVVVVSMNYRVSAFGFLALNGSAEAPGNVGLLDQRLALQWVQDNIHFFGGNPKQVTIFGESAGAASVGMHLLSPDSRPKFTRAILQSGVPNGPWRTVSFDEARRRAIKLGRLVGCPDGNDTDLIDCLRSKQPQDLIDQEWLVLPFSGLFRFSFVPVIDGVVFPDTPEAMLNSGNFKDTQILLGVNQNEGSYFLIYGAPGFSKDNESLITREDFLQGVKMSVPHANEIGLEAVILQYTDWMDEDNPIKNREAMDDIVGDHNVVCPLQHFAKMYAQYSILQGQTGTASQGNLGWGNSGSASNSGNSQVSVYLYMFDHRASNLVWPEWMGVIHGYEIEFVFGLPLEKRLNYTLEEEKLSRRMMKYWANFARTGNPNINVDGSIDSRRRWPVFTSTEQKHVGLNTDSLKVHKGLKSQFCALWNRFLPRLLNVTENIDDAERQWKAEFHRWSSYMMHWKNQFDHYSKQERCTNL
Chain of Acetylcholinesterase (Electrophorus electricus) (O42275 24-633 limits assumed): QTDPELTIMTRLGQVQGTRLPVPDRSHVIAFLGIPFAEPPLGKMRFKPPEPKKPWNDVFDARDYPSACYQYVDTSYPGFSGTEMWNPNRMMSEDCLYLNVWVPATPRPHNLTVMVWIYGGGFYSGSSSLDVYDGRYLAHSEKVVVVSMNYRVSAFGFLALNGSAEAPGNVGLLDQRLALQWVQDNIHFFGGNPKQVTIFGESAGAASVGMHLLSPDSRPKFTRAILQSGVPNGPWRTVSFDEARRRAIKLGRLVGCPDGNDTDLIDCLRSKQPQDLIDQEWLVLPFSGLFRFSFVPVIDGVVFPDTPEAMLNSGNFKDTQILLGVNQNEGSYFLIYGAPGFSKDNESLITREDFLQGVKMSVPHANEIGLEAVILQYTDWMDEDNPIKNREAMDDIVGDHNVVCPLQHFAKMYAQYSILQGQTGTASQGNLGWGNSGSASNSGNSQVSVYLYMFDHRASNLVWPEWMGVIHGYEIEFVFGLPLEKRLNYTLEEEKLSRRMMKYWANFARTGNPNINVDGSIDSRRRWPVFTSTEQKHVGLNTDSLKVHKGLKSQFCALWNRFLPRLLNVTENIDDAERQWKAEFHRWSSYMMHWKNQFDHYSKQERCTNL

As a reminder, the Ki is the equilibrium dissociation constant of an inhibitor or competing ligand from its target. Low values mean a stronger hold on the target, high ones a looser hold on the target. As a reminder, the IC50 is the concentration that inhibits the measured activity by half. Read a high IC50 as weaker potency. With `O=C(C1=C(O)/C(=C/c2ccc(OCCN3CCCCC3)cc2)CCC1)c1ccccc1`, the inhibition result in test [1] and in test [4] was “Active” in each case. Besides, at Acetylcholinesterase [2], the affinity corresponds to a Ki of 1.9 µM. The half-inhibitory concentration (IC50) on Acetylcholinesterase [3] was found to be 1.6 µM; at Cholinesterase [5] it was 2.7 µM.

For the compound `O=C(C1=C(O)/C(=C/c2ccc(Cc3ccccc3)cc2)CCC1)c1ccccc1`, in test [1], the inhibition result is “Active”. Moreover, the IC50 against Acetylcholinesterase [3] was found to be 8.4 µM. The inhibition entry in test [4] was “inactive”.

Regarding `O=C(C1=C(O)/C(=C/c2ccc(OCCN3CCCC3)cc2)CCC1)c1ccccc1`, the inhibition result in test [1] and in test [4] was “Active” each time. Moreover, the half-maximal inhibitory concentration (IC50) against Acetylcholinesterase [3] worked out at 2 µM; against Cholinesterase [5], 2.3 µM.

`O=C(C1=C(O)/C(=C/c2cccs2)CCC1)c1ccccc1`: in test [1], the inhibition entry was “Active”. This compound showed an IC50 at Acetylcholinesterase [3] of 5.1 µM. For the same compound, the inhibition result in test [4] was “inactive”.

As to `O=C(C1=C(O)/C(=C/c2cccc(OCCN3CCCCC3)c2)CCC1)c1ccccc1`, the inhibition result in test [1] and in test [4] was “Active” throughout. Also, the 50% inhibitory concentration (IC50) stood at 3.1 µM at Acetylcholinesterase [3] and 1.4 µM against Cholinesterase [5].

Turning to `O=C(C1=C(O)/C(=C/c2ccc(O)c(Br)c2)CCC1)c1ccccc1`, the inhibition entry in test [1] was “inactive”. Also, the inhibition result in test [4] is “Active”. The compound further registered an IC50 against Cholinesterase [5] of 4.7 µM.

As for `O=C(C1=C(O)/C(=C/c2ccc(Cl)cc2Cl)CCC1)c1ccccc1`, in test [1], the inhibition entry is “Active”. The compound also had an IC50 against Acetylcholinesterase [3] of 5.4 µM. Besides, the inhibition result in test [4] was “inactive”.

Take `O=C(C1=C(O)/C(=C/c2ccc(O)cc2)CCC1)c1ccccc1`: the inhibition entry in test [1] and in test [4] was “inactive” throughout.

With `O=C(C1=C(O)/C(=C/c2ccc(O)c(Cl)c2)CCC1)c1ccccc1`, the inhibition entry in test [1] is “inactive”. Further, the inhibition result in test [4] is “Active”. The compound further displayed a half-maximal inhibitory concentration (IC50) against Cholinesterase [5] of 10.6 µM.

`COc1ccc(/C=C2\CCCC(C(=O)c3ccccc3)=C2O)cc1OC`: the inhibition entry in test [1] and in test [4] was “inactive” in each case.

Take `O=C(C1=C(O)/C(=C/c2ccc(Br)cc2)CCC1)c1ccccc1`: the inhibition result in test [1] was “Active”. Moreover, on Acetylcholinesterase [3], half-maximal inhibition (IC50) was put at 8.7 µM. For the same compound, the inhibition entry in test [4] was “inactive”.

As for `O=C(C1=C(O)/C(=C/c2ccc(F)c(F)c2)CCC1)c1ccccc1`, the inhibition entry in test [1] is “Active”. For the same compound, the half-maximal inhibitory concentration (IC50) on Acetylcholinesterase [3] turned out to be 8.7 µM. The inhibition entry in test [4] is “inactive”.

For `O=C(C1=C(O)/C(=C/c2cccc(Cl)c2Cl)CCC1)c1ccccc1`, the inhibition result in test [1] is “Active”. At Acetylcholinesterase [3], this compound yielded a 50% inhibitory concentration (IC50) of 5.9 µM. For the same compound, the inhibition result in test [4] is “inactive”.

For the compound `COc1ccccc1/C=C1\CCCC(C(=O)c2ccccc2)=C1O`, the inhibition result in test [1] and in test [4] was “inactive” each time.

In the case of `O=C(C1=C(O)/C(=C/c2ccc(F)cc2)CCC1)c1ccccc1`, in test [1], the inhibition result was “Active”. Half-maximal inhibition against Acetylcholinesterase [3] (IC50) was put at 6.6 µM. Further, the inhibition result in test [4] is “inactive”.

As to `O=C(C1=C(O)/C(=C/c2cccc(Cc3ccccc3)c2)CCC1)c1ccccc1`, in test [1], the inhibition result was “Active”. At Acetylcholinesterase [3], the midpoint of inhibition, the IC50, lay at 7.8 µM. For the same compound, the inhibition result in test [4] is “inactive”.

Regarding `COc1ccc(/C=C2\CCCC(C(=O)c3ccccc3)=C2O)c(OC)c1OC`, the inhibition result in test [1] and in test [4] was “inactive” in each case.

As to `COc1ccc(/C=C2\CCCC(C(=O)c3ccccc3)=C2O)cc1O`, the inhibition entry in test [1] and in test [4] was “inactive” in each case.

Consider `O=C(C1=C(O)/C(=C/c2cccc(Cl)c2)CCC1)c1ccccc1`, for which the inhibition entry in test [1] and in test [4] was “inactive” in each case.

As to `O=C(C1=C(O)/C(=C/c2cccc(OCCN3CCCC3)c2)CCC1)c1ccccc1`, the inhibition result in test [1] and in test [4] was “Active” throughout. Besides, the affinity on Cholinesterase [6] corresponds to a Ki of 0.2 µM. The half-inhibitory concentration (IC50) at Acetylcholinesterase [3] is 3.5 µM; at Cholinesterase [5] it was 0.6 µM.

As to `Cc1cccc(/C=C2\CCCC(C(=O)c3ccccc3)=C2O)c1`, the inhibition result in test [1] was “Active”. The compound also gave a half-inhibitory concentration (IC50) against Acetylcholinesterase [3] of 8.6 µM. The inhibition entry in test [4] is “inactive”.

As for `COc1ccc(OC)c(/C=C2\CCCC(C(=O)c3ccccc3)=C2O)c1`, the inhibition result in test [1] and in test [4] was “inactive” throughout.

As to `O=C(C1=C(O)/C(=C/c2cccc3ccccc23)CCC1)c1ccccc1`, the inhibition entry in test [1] was “Active”. The compound further came in with a half-inhibitory concentration (IC50) against Acetylcholinesterase [3] of 7.6 µM. Moreover, in test [4], the inhibition result is “inactive”.

Regarding `Cc1ccc(/C=C2\CCCC(C(=O)c3ccccc3)=C2O)cc1`, the inhibition entry in test [1] is “Active”. This compound came in with an IC50 on Acetylcholinesterase [3] of 8.5 µM. For the same compound, in test [4], the inhibition entry was “inactive”.

Turning to `COc1cc(/C=C2\CCCC(C(=O)c3ccccc3)=C2O)ccc1O`, the inhibition result in test [1] and in test [4] was “inactive” in each case.

Turning to `Cc1ccc(/C=C2\CCCC(C(=O)c3ccccc3)=C2O)s1`, the inhibition entry in test [1] is “Active”. This compound also displayed an IC50 on Acetylcholinesterase [3] of 5.9 µM. Besides, the inhibition result in test [4] is “inactive”.

`O=C(C1=C(O)/C(=C/c2ccc(Cl)c(Cl)c2)CCC1)c1ccccc1`: the inhibition result in test [1] was “Active”. The midpoint of inhibition against Acetylcholinesterase [3], the IC50, lay at 9.8 µM. Further, the inhibition result in test [4] is “inactive”.

Turning to `COc1cccc(/C=C2\CCCC(C(=O)c3ccccc3)=C2O)c1OC`, the inhibition entry in test [1] and in test [4] was “inactive” throughout.

As for `O=C(C1=C(O)/C(=C/c2ccc(O)c(O)c2)CCC1)c1ccccc1`, the inhibition entry in test [1] is “inactive”. The inhibition result in test [4] is “Active”. Besides, the half-inhibitory concentration (IC50) against Cholinesterase [5] worked out at 6.5 µM.

As for `O=C(C1=C(O)/C(=C/c2ccccc2)CCC1)c1ccccc1`, the inhibition result in test [1] and in test [4] was “inactive” in each case.

As to `O=C(C1=C(O)/C(=C/c2ccccc2Br)CCC1)c1ccccc1`, the inhibition entry in test [1] is “Active”. The 50% inhibitory concentration (IC50) against Acetylcholinesterase [3] was determined as 8.4 µM. The inhibition result in test [4] is “inactive”.

Take `COc1ccc(/C=C2\CCCC(C(=O)c3ccccc3)=C2O)cc1`: the inhibition result in test [1] and in test [4] was “inactive” throughout.

In the case of `O=C(C1=C(O)/C(=C/c2ccc3ccccc3c2)CCC1)c1ccccc1`, the inhibition result in test [1] was “Active”. Also, the half-inhibitory concentration (IC50) against Acetylcholinesterase [3] is 8.3 µM. For the same compound, in test [4], the inhibition result was “inactive”.

`O=C(C1=C(O)/C(=C/c2ccc(Cl)cc2)CCC1)c1ccccc1`: in test [1], the inhibition entry is “Active”. The same compound returned a half-inhibitory concentration (IC50) against Acetylcholinesterase [3] of 7.6 µM. Besides, the inhibition result in test [4] was “inactive”.

On to `O=C(C1=C(O)/C(=C/c2ccc(Br)c(Br)c2)CCC1)c1ccccc1`, for which the inhibition entry in test [1] is “Active”. At Acetylcholinesterase [3], this compound yielded an IC50 of 9 µM. Also, the inhibition entry in test [4] was “inactive”.

For the compound `O=C(C1=C(O)/C(=C/c2cccc(F)c2)CCC1)c1ccccc1`, the inhibition entry in test [1] is “Active”. On Acetylcholinesterase [3], this compound showed an IC50 of 9.7 µM. Also, the inhibition result in test [4] is “inactive”.

For `COc1cc(/C=C2\CCCC(C(=O)c3ccccc3)=C2O)cc(OC)c1OC`, the inhibition result in test [1] and in test [4] was “inactive” each time.

As to `O=C(C1=C(O)/C(=C/c2ccccc2F)CCC1)c1ccccc1`, in test [1], the inhibition entry is “Active”. This compound also yielded an IC50 at Acetylcholinesterase [3] of 6.6 µM. The inhibition result in test [4] was “inactive”.

With `O=C(C1=C(O)/C(=C/c2ccccc2Cl)CCC1)c1ccccc1`, the inhibition result in test [1] and in test [4] was “inactive” in each case. The compound further displayed an IC50 at Acetylcholinesterase [3] of 8.2 µM.

In the case of `COc1cccc(/C=C2\CCCC(C(=O)c3ccccc3)=C2O)c1`, the inhibition result in test [1] was “Active”. Also, the IC50 against Acetylcholinesterase [3] came out at 7.4 µM. Also, in test [4], the inhibition entry is “inactive”.

On to `O=C(C1=C(O)/C(=C/c2cccc(O)c2)CCC1)c1ccccc1`, for which the inhibition result in test [1] and in test [4] was “inactive” throughout.

The values are drawn from ChEMBL document CHEMBL3813676, “2-Benzoyl-6-benzylidenecyclohexanone analogs as potent dual inhibitors of acetylcholinesterase and butyrylcholinesterase” (Bioorg Med Chem, 2016).
